The record followed here is BindingDB's records for doi:10.1016/s0968-0896(00)00026-2 (Alcon Research, 2000).

The target in this test is Carbonic anhydrase 2 (Homo sapiens, UniProt P00918). Nature of the test: In vitro binding of inhibitor to hCA-II. The protocol: Inhibitor binding to CA II was determined using a fluorescence competition assay. Displacement of dansylamide and binding of the inhibitor was determined by measuring and comparing the average fluorescence intensities of the treated versus control reactions. Binding constants were estimated from a Dixon plot of the data (reciprocal of the average fluorescence intensity versus inhibitor concentration)

Counter-ions that a name gives are not always drawn.

With `C#CCNCC1=Cc2cc(S(N)(=O)=O)sc2S(=O)(=O)N1CCC` [1,1-dioxo-3-[(prop-2-yn-1-ylamino)methyl]-2-propyl-2H-1,7,2-thieno[3,2-e][1,2]thiazine-6-sulfonamide], the Ki turned out to be 100 pM.

The compound `COc1cccc(N2C(CN3CCOCC3)=Cc3cc(S(N)(=O)=O)sc3S2(=O)=O)c1` [2-(3-Methoxyphenyl)-3-[(4-morpholinyl)methyl]-2H-thieno-[3,2-e]-1,2-thiazine-6-sulfonamide 1,1-dioxide] had a Ki (pH 7.4, 37 °C) of 150 pM.

`C#CCNCC1=Cc2cc(S(N)(=O)=O)sc2S(=O)(=O)N1c1cccc(O)c1` [2-(3-hydroxyphenyl)-1,1-dioxo-3-[(prop-2-yn-1-ylamino)methyl]-2H-1,7,2-thieno[3,2-e][1,2]thiazine-6-sulfonamide hydrochloride]: the Ki worked out at 160 pM.

As to `NS(=O)(=O)c1cc2c(s1)S(=O)(=O)N(CC1CC1)C(CN1CCOCC1)=C2` [2-(cyclopropylmethyl)-3-(morpholin-4-ylmethyl)-1,1-dioxo-2H-1,7,2-thieno[3,2-e][1,2]thiazine-6-sulfonamide hydrochloride], affinity was put at a Ki of 300 pM.

In turn, `CCN1C(CN2CCOCC2)=Cc2cc(S(N)(=O)=O)sc2S1(=O)=O` [2-Ethyl-3-[(4-morpholinyl)methyl]-2H-thieno[3,2-e]-1,2-thiazine-6-sulfonamide 1,1-dioxide hydrochloride] registered a Ki (pH 7.4, 37 °C) of 210 pM.

As to `CCN1C(CN(CCOC)CCOC)=Cc2cc(S(N)(=O)=O)sc2S1(=O)=O` [2-Ethyl-3-[[bis(2-methoxyethyl)amino]methyl]-2H-thieno-[3,2-e]-1,2-thiazine-6-sulfonamide 1,1-dioxide hydrochloride], the Ki (pH 7.4, 37 °C) was 210 pM. This counts as sub-nanomolar.

For the compound `CCCNCCN1C=Cc2cc(S(N)(=O)=O)sc2S1(=O)=O` [2-[2-(Propylamino)ethyl]-2H-thieno[3,2-e]-1,2-thiazine-6-sulfonamide 1,1-dioxide hydrochloride], the Ki (pH 7.4, 37 °C) was determined as 520 pM.

The compound `NS(=O)(=O)c1cc2c(s1)S(=O)(=O)N(C/C=C/CN1CCOCC1)C=C2` [2-[(2E)-4-(morpholin-4-yl)but-2-en-1-yl]-1,1-dioxo-2H-1,7,2-thieno[3,2-e][1,2]thiazine-6-sulfonamide hydrochloride] had a Ki (pH 7.4, 37 °C) of 240 pM.

In turn, `CN1C(CN2CCOCC2)=Cc2cc(S(N)(=O)=O)sc2S1(=O)=O` [2-methyl-3-(morpholin-4-ylmethyl)-1,1-dioxo-2H-1,7,2-thieno[3,2-e][1,2]thiazine-6-sulfonamide hydrochloride] gave a Ki (pH 7.4, 37 °C) of 260 pM.

On to `COCCN(CCOC)CCN1C=Cc2cc(S(N)(=O)=O)sc2S1(=O)=O` [2-{2-[bis(2-methoxyethyl)amino]ethyl}-1,1-dioxo-2H-1,7,2-thieno[3,2-e][1,2]thiazine-6-sulfonamide hydrochloride], for which the Ki (pH 7.4, 37 °C) was 340 pM.

`C=CCN1C(CN2CCOCC2)=Cc2cc(S(N)(=O)=O)sc2S1(=O)=O` [3-(morpholin-4-ylmethyl)-1,1-dioxo-2-(prop-2-en-1-yl)-2H-1,7,2-thieno[3,2-e][1,2]thiazine-6-sulfonamide] had a Ki of 160 pM. This lies in the sub-nanomolar range.

For the compound `COCCCN1C(CNC2CC2)=Cc2cc(S(N)(=O)=O)sc2S1(=O)=O` [3-[(cyclopropylamino)methyl]-2-(3-methoxypropyl)-1,1-dioxo-2H-1,7,2-thieno[3,2-e][1,2]thiazine-6-sulfonamide hydrochloride], affinity was put at a Ki of 260 pM. Against the preceding compound, the Ki is about 1.6-fold higher.

Consider `COCCN(C)CC1=Cc2cc(S(N)(=O)=O)sc2S(=O)(=O)N1C` [3-[N-(2-Methoxyethyl)-N-methylamino]methyl]-2-methyl-2H-thieno[3,2-e]-1,2-thiazine-6-sulfonamide 1,1-dioxide], for which, under “pH 7.4, 37 °C”, the affinity, expressed as Ki, was 150 pM.

Turning to `COc1cccc(N2C(CNCCO)=Cc3cc(S(N)(=O)=O)sc3S2(=O)=O)c1` [3-{[(2-hydroxyethyl)amino]methyl}-2-(3-methoxyphenyl)-1,1-dioxo-2H-1,7,2-thieno[3,2-e][1,2]thiazine-6-sulfonamide hydrochloride], the affinity, expressed as Ki, was 110 pM.

Compound `COCCCN(CCOC)CC1=Cc2cc(S(N)(=O)=O)sc2S(=O)(=O)N1C` [3-{[(2-methoxyethyl)(3-methoxypropyl)amino]methyl}-2-methyl-1,1-dioxo-2H-1,7,2-thieno[3,2-e][1,2]thiazine-6-sulfonamide hydrochloride] had a Ki (pH 7.4, 37 °C) of 80 pM.

`CCCN1C(CN(CCOC)CCOC)=Cc2cc(S(N)(=O)=O)sc2S1(=O)=O` [3-{[bis(2-methoxyethyl)amino]methyl}-1,1-dioxo-2-propyl-2H-1,7,2-thieno[3,2-e][1,2]thiazine-6-sulfonamide hydrochloride] came in with an inhibitory constant (Ki) of 150 pM. That is a sub-nanomolar value.

`NS(=O)(=O)c1cc2c(s1)S(=O)(=O)N(CCN1CCOCC1)C=C2` [Compound 5b] had a Ki (pH 7.4, 37 °C) of 320 pM.

Under “pH 7.4, 37 °C”, `CC(=O)N1CCN(CCN2C=Cc3cc(S(N)(=O)=O)sc3S2(=O)=O)CC1` [Compound 5c] showed a Ki of 250 pM.

For `C=CCN(CCOC)CC1=Cc2cc(S(N)(=O)=O)sc2S(=O)(=O)N1C` [Compound 17a7], the Ki (pH 7.4, 37 °C) worked out at 100 pM.

As for `CCN1C(CN(CCO)CCO)=Cc2cc(S(N)(=O)=O)sc2S1(=O)=O` [Compound 17b4], the Ki is 330 pM. This counts as sub-nanomolar.

Consider `CCCN1C(CN2CCOCC2)=Cc2cc(S(N)(=O)=O)sc2S1(=O)=O` [Compound 17c1], for which the Ki stood at 270 pM.

Turning to `CC(C)N1C(CN2CCOCC2)=Cc2cc(S(N)(=O)=O)sc2S1(=O)=O` [Compound 17d1], the Ki is 330 pM. The Ki values of the last two compounds are within 1.5-fold of each other.

In turn, `C#CCNCC1=Cc2cc(S(N)(=O)=O)sc2S(=O)(=O)N1C(C)C` [Compound 17d8] showed a Ki of 470 pM. This Ki and that of the compound before are within 1.5-fold of each other.

`NS(=O)(=O)c1cc2c(s1)S(=O)(=O)N(C1CCCCC1)C(CN1CCOCC1)=C2` [Compound 17g1] yielded a Ki of 310 pM.

In turn, `COCCN1C(CN2CCOCC2)=Cc2cc(S(N)(=O)=O)sc2S1(=O)=O` [Compound 17h1] had a Ki of 220 pM.

In turn, `COCCN(CCOC)CC1=Cc2cc(S(N)(=O)=O)sc2S(=O)(=O)N1CCOC` [Compound 17h2] came in with a Ki of 210 pM.

As to `COCCCN1C(CN2CCOCC2)=Cc2cc(S(N)(=O)=O)sc2S1(=O)=O` [Compound 17i1], the Ki worked out at 250 pM. This Ki and that of the compound before are within 1.5-fold of each other.

In turn, `COCCCN1C(Cn2ccnc2)=Cc2cc(S(N)(=O)=O)sc2S1(=O)=O` [Compound 17i10] yielded a Ki of 120 pM.

Compound `COc1ccc(CN2C(CN3CCOCC3)=Cc3cc(S(N)(=O)=O)sc3S2(=O)=O)cc1` [Compound 17j1] returned a Ki of 110 pM. The Ki values of the last two compounds are within 1.5-fold of each other.

As to `COc1ccc(N2C(CN3CCOCC3)=Cc3cc(S(N)(=O)=O)sc3S2(=O)=O)cc1OC` [Compound 17m1], the Ki was determined as 80 pM.

On to `NS(=O)(=O)c1cc2c(s1)S(=O)(=O)N(c1ccc(N3CCOCC3)cc1)C(CN1CCOCC1)=C2` [Compound 17n1], for which affinity was put at a Ki of 120 pM.

As to `NS(=O)(=O)c1cc2c(s1)S(=O)(=O)N(CCCO)C(CN1CCOCC1)=C2` [Compound 17o1], the Ki is 200 pM.

`CN1C(CN2CCOCC2)=Cc2sc(S(N)(=O)=O)cc2S1(=O)=O` [Compound 25] displayed a Ki of 210 pM.
